In patent US11192849B2, “Compounds, compositions, and methods for modulating ferroptosis and treating excitotoxic disorders” (THE TRUSTEES OF COLUMBIA UNIVERSITY IN THE CITY OF NEW YORK, priority 2013, dated 2021):

Experiments:
[1] = system: HT-1080 cells; assay: Effect of Fer-1 on the lethality of various compounds in HT-1080 cells; assay type: cell-based, human; details: resynthesized Fer-1 (0.5 μM)
Experimental: The comparative analysis of the lethal effects of various molecules was conducted as above for the inhibitors experiment with the following modifications. All lethal molecules were tested in a ten point, two-fold dilution series. Inhibitors were made in media at 1× final concentration. The growth media was removed from the plates, and 36 μL media+inhibitor (or DMSO) was added back to the plate+4 μL from the 10× lethal stock plate. Cell viability and modulatory effects (Me) were computed as above, to obtain the maximum deviation from BExp produced by each modulator across the different lethal small molecule concentrations.

[2] = system: HT-1080 cells; assay: HT-1080 cell proliferation (Vi-Cell); assay type: cell-based, human; details: over 48 hours
Experimental: Cell viability was typically assessed in 384-well format by Alamar Blue (Invitrogen) fluorescence (ex/em 530/590) measured on a Victor3 platereader (Perkin Elmer, Waltham, Mass.). In some experiments, Trypan Blue dye exclusion counting was performed using an automated cell counter (ViCell, Beckman-Coulter Inc., Brea, Calif.). Cell viability in test conditions is reported as a percentage relative to the negative control treatment.

[3] = system: mice, LPS-induced shock; assay: LPS-induced lethal shock; assay type: in vivo, mouse; details: Fer-1 5 mg/kg i.p. 30 min before LPS
Experimental: Mice were injected intraperitoneally (i.p.) with 15 mg/kg Escherichia coli O111:B4 LPS (Sigma-Aldrich). Mice were pretreated by an i.p. injection of 5 mg/kg ethyl 3-amino-4-(cyclohexylamino)benzoate (Fer-1; Matrix Scientific), 10 mg/kg [5-((7-Cl-1H-indol-3-yl)methyl)-3-methylimidazolidine2,4-dione] (Nec-1s; synthesized in house), a combination of Fer-1 and Nec-1s, or vehicle (1% DMSO in PBS) 30 min before the LPS challenge. Rectal body temperature and survival rates were monitored daily up to 96 h. Experiments were approved by the animal ethics committee of Ghent University.

[4] = system: HT-1080 cells; assay: Cytosolic and lipid ROS production (H2DCFDA, C11-BODIPY flow cytometry) in HT-1080 cells; assay type: cell-based, human; details: erastin (10 μM)
Experimental: The day before the experiment, 200,000 cells/well were seeded in 6-well dishes (Corning Inc., Corning, N.Y.). The day of the experiment, cells were treated with test compounds for the indicated times, then harvested by trypsinization, resuspended in 500 μL Hanks Balanced Salt Solution (HBSS, Gibco, Invitrogen Corp., Carlsbad, Calif.) containing either H2DCFDA (25 μM), C11-BODIPY(581/591) (2 μM) or MitoSOX (5 μM) (all from Molecular Probes, Invitrogen) and incubated for 10 minutes at 37° C. in a tissue culture incubator. Cells were then resuspended in 500 μL of fresh HBSS, strained through a […] cell strainer (BD Falcon, BD Biosciences, San Jose, Calif.), and analyzed using a flow cytometer (FACSCalibur or Accuri C6, BD Biosciences), which was equipped with 488-nm laser for excitation. Data was collected from the FL1 (H2DCFDA, C11-BODIPY) or FL2 channel (MitoSOX). A minimum of 10,000 cells were analyzed per condition.

[5] = 2,2-Diphenyl-1-picrylhydrazyl (DPPH) cell-free antioxidant assay; assay type: biochemical; details: test compound 0.05 mM, 30 minutes
Experimental: The stable radical DPPH (Blois, 1958) was dissolved in methanol to a final working concentration of 0.05 mM. This was prepared as follows. First, a 100× stock concentration (5 mM) was prepared by dissolving 3.9 mg DPPH in 2 mL methanol. Then, for 25 mL of 0.05 mM final working solution, 250 μL of the 5 mM solution was added to 24.75 mL of methanol. 1 mL of DPPH solution was added to a small volume (<5 μL) each test compound dissolved in DMSO. The final concentration of each test compound was 0.05 mM. Samples were inverted several times and allowed to incubate at room temperature for 30 minutes. Samples were then aliquoted to white 96-well solid-bottom dishes (Corning) and absorbance at 517 nm was recorded using a TECAN M200 plate reader. All values were normalized to background (methanol only). The experiment was repeated three times and the data was averaged.
In parallel with the above cell-based assay, a 2,2-diphenyl-1-picrylhydrazyl (DPPH) assay was used to examine the ability of each analog to scavenge free radicals in a cell-free in vitro solution—a test of intrinsic antioxidant capacity. […] Redox active analogs scavenged the DPPH radical by 60-90% within 30 minutes (FIG. 18a).

[6] = In vitro stability study in mouse plasma; assay type: in vitro ADME
Experimental: The assay was conducted by incubating 1 μM of test compounds with Mouse Plasma (Strain […]) for a series of incubation times (0, 15, 30, 60, 120 minutes) at various temperatures (wet ice, room temperature, or 37° C.) with 5% CO2 and shaking (130 rpm). At each time point, the samples were quenched with 200 μL of stop solution containing an internal standard and kept on ice. The samples were analysed by LC-MS/MS.

[7] = system: mice, CaOx-induced nephropathy; assay: Acute oxalate nephropathy model; assay type: in vivo, mouse; details: Ferrostatin-1 10 mg/kg i.p.
Experimental: Mice were divided into two groups. One group received vehicle injections and another group received Ferrostatin-1 (10 mg/kg i.p.). Then, 15 min later, both groups were given a single i.p. injection of 100 mg/kg sodium oxalate and 3% sodium oxalate in drinking water. Blood samples and kidneys were harvested after 24 h. Kidneys were kept at −80° C. for protein isolation and at −20° C. for RNA isolation. One part of the kidney was also kept in formalin to be embedded in paraffin for histological analysis. Kidney sections (2 μm) were stained with periodic acid-Schiff (PAS) reagent. Tubular injury was scored by assessing the percentage of necrotic tubules. Ly6B.2+ neutrophils were identified by immunostaining (clone 7/4; Serotec). Pizzolato stain was used to visualize CaOx crystals, and crystal deposit formation in the kidney was evaluated as described previously (Mulay et al., 2013), using the following point values: 0, no deposits; 1, crystals in papillary tip; 2, crystals in cortical medullary junction; 3, crystals in cortex. […] Serum creatinine and blood urea nitrogen were measured using Creatinine FS kit and Urea FS kit (both from DiaSys Diagnostic Systems) according to the manufacturer's protocol. Neutrophil infiltrates were counted in 15 high-power fields (hpfs) per section. For real-time quantitative RT-PCR, total RNA was isolated from kidneys using a Qiagen RNA extraction kit following the manufacturer's instructions. After quantification, RNA quality was assessed using agarose gels. […] Real-time quantitative RT-PCR (TaqMan) was performed using SYBR-Green PCR master mix and analyzed with a Light Cycler 480 (Roche). […] The expression of KIM-1, IL-6, CXCL-2, and NF-κB p65 was analyzed using the following primers: Kim-1 forward, 5′-[…]-3′ (SEQ ID NO:17); Kim-1 reverse, 5′-[…]-3′ (SEQ ID NO:18); IL-6 forward, 5′-[…]-3′ (SEQ ID NO:19); IL-6 reverse, 5′-[…]-3′ (SEQ ID NO:20); CXCL-2 forward, 5′-[…]-3′ (SEQ ID NO:21); CXCL-2 reverse, 5′-[…]-3′ (SEQ ID NO:22); NF-κB p65 forward, 5′-[…]-3′ (SEQ ID NO:23); NF-κB p65 reverse, 5′-[…]-3′ (SEQ ID NO:24).

**Q.** Which results are given for `CCOC(=O)c1ccc(NC2CCCCC2)c(N)c1` [SRS8-28 (Fer-1), ethyl 3-amino-4-(cyclohexylamino)benzoate]?
**A.** specificity of death inhibition among lethal compounds [1]: specifically inhibited RSL-induced death, but not cell death induced by other oxidative lethal compounds and apoptosis-inducing agents; HT-1080 cell proliferation [2]: did not inhibit ERK phosphorylation or arrest the proliferation of HT-1080 cells; temperature drop and survival after LPS [3]: no difference compared with vehicle-treated mice was evident; effect of inhibitor on erastin-induced ROS accumulation [4]: prevent erastin-induced accumulation of cytosolic and lipid ROS; intrinsic antioxidant capability in the DPPH assay [5]: readily oxidized the stable radical; mouse plasma stability [6]: poor plasma stability; neutrophil infiltration and expression of CXCL-2, IL-6, KIM-1, p65 [7]: statistically significantly reduced; serum creatinine and urea [7]: significantly reduced; tubular injury score [7]: significantly reduced
